The test system of one assay is NCI/ADR-RES. Kind of assay: Growth inhibition of human MCF7/ADR cells. It counts as functional.
The next assay deals with U-251. Kind of assay: Growth inhibition of human U251 cells. It counts as functional.
Another assay relates to SW-620. Kind of assay: Growth inhibition of human SW620 cells. Format: functional.
A further assay has as its system SK-OV-3. Kind of assay: Growth inhibition of human SKOV3 cells. It counts as functional.
A further assay concerns DU-145. Kind of assay: Growth inhibition of human DU145 cells. Format: functional.
A further assay relates to A498. Kind of assay: Growth inhibition of human A498 cells. It counts as functional.
Another assay deals with MCF7. Kind of assay: Growth inhibition of human MCF7 cells. It counts as functional.
A short description of assay [1]: Growth inhibition of human OVCAR1 cells. It counts as functional.
In assay [2] the target is T1, Bile acid receptor (Homo sapiens, UniProt Q96RI1).
T1 sequence (Q96RI1 whole entry): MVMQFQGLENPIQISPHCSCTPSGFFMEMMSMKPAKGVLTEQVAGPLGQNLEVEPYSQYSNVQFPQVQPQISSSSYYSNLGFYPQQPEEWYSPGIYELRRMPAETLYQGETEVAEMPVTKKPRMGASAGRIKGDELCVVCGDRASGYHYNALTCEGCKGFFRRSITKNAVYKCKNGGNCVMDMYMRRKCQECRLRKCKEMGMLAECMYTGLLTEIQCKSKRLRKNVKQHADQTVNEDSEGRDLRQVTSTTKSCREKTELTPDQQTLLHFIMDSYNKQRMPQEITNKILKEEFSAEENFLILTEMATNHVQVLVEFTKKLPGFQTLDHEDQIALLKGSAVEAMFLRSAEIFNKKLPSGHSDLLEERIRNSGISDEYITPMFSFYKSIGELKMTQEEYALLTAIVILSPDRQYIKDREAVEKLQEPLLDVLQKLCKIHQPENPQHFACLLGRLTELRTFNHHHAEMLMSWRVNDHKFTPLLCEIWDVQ
Kind of assay: Antagonist activity at FXR (unknown origin).

Assay [3] is described as follows: Cytotoxicity against human KKU-M213 cells assessed as reduction in cell viability after 24 hrs by MTT assay. The conditions noted are these: KKU-M213, 24 h. It counts as functional, cell-based. In general terms: Tetrazolium dyes change colour on reduction, which living cells bring about.
Assay [4] is described as follows: Antiviral activity against H9N2 subtype infected in MDCK cells after 2 to 3 days. It counts as functional, cell-based. The conditions noted are these: Influenza A virus.
The subject of a further assay is H5N1 subtype. Kind of assay: Antiviral activity against H5N1 subtype infected in MDCK cells after 2 to 3 days. It counts as functional, organism-based. The following applies: Influenza A virus.
Assay [5] in a line: Selectivity index, ratio of CC50 for MDCK cells to EC50 for H9N2 subtype.
Assay [6] can be described thus: Antiviral activity H1N1 subtype infected in MDCK cells after 2 to 3 days. It counts as functional, cell-based. The conditions noted are these: Influenza A virus.
A short description of assay [7]: Selectivity index, ratio of CC50 for MDCK cells to EC50 for H5N1 subtype.
Assay [8] in a line: Selectivity index, ratio of CC50 for MDCK cells to EC50 for H1N1 subtype.
Assay [9] deals with T1, Bile acid receptor. Kind of assay: Antagonist activity at Gal4 DBD-fused human FXR LBD expressed in human HepG2 cells after 8 hrs by luciferase reporter gene assay. It counts as cell-based. On the technique in general: In a reporter assay the amount or activity of a reporter protein is the signal.
In assay [10] the test system is Mus musculus. Kind of assay: Hypoglycemic activity in db/db mouse assessed as decrease in blood glucose level at 100 mg/kg administered daily for 6 days relative to control. Format: functional. More on the design: scale not given: the % may be the effect or the level left.
Assay [11] deals with Mus musculus. Kind of assay: Decrease in plasma triglycerides level in db/db mouse at 100 mg/kg administered daily for 6 days relative to control. Format: functional. More on the design: scale not given: the % may be the effect or the level left.
Another assay deals with Rattus norvegicus. Kind of assay: Hypoglycemic activity in diabetic rat assessed as decrease in blood glucose level at 150 mg/kg after 24 hrs relative to control. It counts as functional. Also on record: scale not given: the % may be the effect or the level left.

Each structure is given as a SMILES string.

A word on the GI50: it is the concentration that inhibits growth by half. Regarding `CCC(=O)OC[C@@]1(C)[C@H]2CC[C@@]3(CO3)[C@@H](C/C=C3/C(=O)OC[C@H]3OC(=O)/C=C/c3ccc(OC)c(OC)c3)[C@]2(C)CC[C@H]1OC(=O)CC`, the GI50 in the assay on NCI/ADR-RES, with U-251, in the assay with SW-620, in the assay with SK-OV-3, in the assay on DU-145 and in the assay with A498 was 400 to 7500 nM in each case.

For the compound `CCC(=O)OC[C@@]1(C)[C@H]2CC[C@@]3(CO3)[C@@H](C/C=C3/C(=O)OC[C@H]3OC(=O)/C=C/c3ccccc3)[C@]2(C)CC[C@H]1OC(=O)CC`, the concentration for 50% growth inhibition (GI50) with NCI/ADR-RES, with U-251, in the assay on SW-620, with SK-OV-3, in the assay on DU-145 and in the assay on A498 was 80 to 6000 nM each time.

In the case of `C[C@]1(CO)[C@H]2CC[C@@]3(CO3)[C@@H](C/C=C3/C(=O)OC[C@H]3OC(=O)/C=C/c3ccccc3)[C@]2(C)CC[C@H]1O`, the GI50 in the assay with NCI/ADR-RES, in the assay on U-251, in the assay on SW-620, with SK-OV-3, in the assay on DU-145 and with A498 was 500 to 9000 nM each time.

`CC(=O)OC[C@@]1(C)[C@H]2CC[C@@]3(CO3)[C@@H](C/C=C3/C(=O)OC[C@H]3OC(C)=O)[C@]2(C)CC[C@H]1OC(C)=O`: the 50% growth inhibitory concentration (GI50) in the assay with NCI/ADR-RES, in the assay with U-251, in the assay with SW-620, with SK-OV-3, with DU-145 and with A498 was 250 to 5000 nM throughout.

In the case of `C=C1CC[C@@H]2[C@](C)(COC(C)=O)[C@H](OC(C)=O)CC[C@@]2(C)[C@@H]1CC(C1=CCOC1=O)n1cc(I)c(=O)[nH]c1=O` (some centres not stated), the GI50 (with NCI/ADR-RES; in the assay with U-251; in the assay with MCF7; in assay [1]) was 2000 nM in each case.

Regarding `C=C1CC[C@@H]2[C@]3(C)COC(C)(c4ccccc4)O[C@@H]3CC[C@@]2(C)[C@@H]1CC(NC(Cc1ccccc1)C(=O)OC)C1=CCOC1=O` (some centres not stated), it took 1400 nM to inhibit growth in assay [1] by half (GI50).

In the assay on U-251, `C=C1CC[C@@H]2[C@](C)(CO)[C@H](O)CC[C@@]2(C)[C@@H]1C/C=C1/C(=O)OC[C@H]1OC(=O)c1ccccc1` returned a GI50 of 1500 nM.

Compound `C=C1CC[C@@H]2[C@](C)(COC(C)=O)[C@H](OC(C)=O)CC[C@@]2(C)[C@@H]1C/C=C1/C(=O)OC[C@H]1OC(=O)CNC(C)=O` registered a GI50 with U-251 of 1500 nM.

The compound `C=C1CC[C@@H]2[C@](C)(CO)[C@H](O)CC[C@@]2(C)[C@@H]1C/C=C/c1cccc(Cl)c1` had a GI50 in the assay with DU-145 of 2000 to 27000 nM.

Turning to `CC(=O)OC[C@@]1(C)[C@H]2CC[C@@]3(CO3)[C@@H](CC(Sc3ccccc3)C3=CCOC3=O)[C@]2(C)CC[C@H]1OC(C)=O` (some centres not stated), the GI50 in the assay with DU-145 was determined as 2000 nM.

In the assay on DU-145, `C=C1CC[C@@H]2[C@](C)(CO)[C@H](O)CC[C@@]2(C)[C@@H]1C/C=C/c1ccccc1` came in with a concentration for 50% growth inhibition (GI50) of 2000 to 27000 nM.

As for `CCC(=O)OC[C@@]1(C)[C@H]2CC[C@@]3(CO3)[C@@H](C/C=C3/C(=O)OC[C@H]3OC(=O)/C=C/c3cccc(OC)c3)[C@]2(C)CC[C@H]1OC(=O)CC`, the GI50 with NCI/ADR-RES, in the assay with U-251, in the assay on SW-620, in the assay on SK-OV-3, in the assay with DU-145 and in the assay with A498 was 600 to 4800 nM in each case.

What is called IC50 is the concentration that gives 50% inhibition. In the case of `C=C1CC[C@@H]2[C@](C)(CO)[C@H](O)CC[C@@]2(C)[C@@H]1C/C=C1/C(=O)OC[C@@H]1Oc1ccccc1OC`, at Bile acid receptor [2], the IC50 fell in the range of 550 to 2000 nM.

The compound `C=C1CC[C@@H]2[C@]3(C)COC(C)(C)O[C@@H]3CC[C@@]2(C)[C@@H]1C/C=C1/C(=O)OC[C@@H]1Oc1ccc([N+](=O)[O-])cc1OC` returned an IC50 at Bile acid receptor [2] of 550 to 2000 nM.

`C=C1CC[C@@H]2[C@](C)(CO)[C@H](O)CC[C@@]2(C)[C@@H]1C/C=C/c1ccc(F)cc1` had a GI50 in the assay on DU-145 of 2000 to 27000 nM.

For `C=C1CC[C@@H]2[C@](C)(CO)[C@H](O)CC[C@@]2(C)[C@@H]1C/C=C1/SC(=O)NC1=O`, the GI50 in the assay with DU-145 is 780 nM.

As to `C=C1CC[C@@H]2[C@]3(C)COC(C)(C)O[C@@H]3CC[C@@]2(C)[C@@H]1Cc1cc(=O)[nH]c(N)n1`, in the assay on DU-145, halving of growth (GI50) required 200 nM.

Consider `CC(C)(C)[Si](OC[C@@]1(C)[C@H]2CC[C@@]3(CO3)[C@@H](C/C=C3/C(=O)OC[C@H]3O)[C@]2(C)CC[C@H]1O)(c1ccccc1)c1ccccc1`, for which the IC50 in assay [3] amounted to 8000 nM.

The compound `C=C1CC[C@@H]2[C@](C)(CO)[C@H](O)CC[C@@]2(C)[C@@H]1C/C=C1/C(=O)OC[C@H]1OC(=O)Nc1ccccc1` returned a GI50 in the assay with NCI/ADR-RES of 400 nM.

`C=C1CC[C@@H]2[C@]3(C)COC(C)(c4ccccc4)O[C@@H]3CC[C@@]2(C)[C@@H]1CC(C1=CCOC1=O)N1CCCC1C(=O)OC` (some centres not stated) showed a GI50 in assay [1] of 1000 nM.

One may read the EC50 as the midpoint of the concentration-response curve. `C=C1CC[C@@H]2[C@](C)(CO)[C@H](O)CC[C@@]2(C)[C@@H]1C/C=C1/C(=O)OC[C@H]1OC(=O)CCCCC1CCSS1` (some centres not stated): the EC50 (in assay [4]; in the assay with H5N1 subtype; in assay [6]) was 7200 to 15200 nM in each case. Besides, the “Selectivity Index” value in assay [5], in assay [7] and in assay [8] was 51 - 109 each time.

Consider `C=C1CC[C@@H]2[C@](C)(CO)[C@H](O)CC[C@@]2(C)[C@@H]1C/C=C1/C(=O)OC[C@H]1O` [ANDROGRAPHOLIDE], for which the IC50 on Bile acid receptor [9] and on Bile acid receptor [2] was 9700 nM throughout. Moreover, the GI50 in the assay on NCI/ADR-RES, with U-251, with SW-620, in the assay with SK-OV-3, in the assay on DU-145 and in the assay with A498 was 3000 to 20000 nM throughout. In addition, the GI50 (in the assay with MCF7; in assay [1]) was 3000 to 20000 nM throughout. Further, the Activity with Mus musculus [10] is on record as 64%; in the assay with Mus musculus [11], 54%.

On to `COc1ccc(Cl)cc1C(=O)NCCc1ccc(S(=O)(=O)NC(=O)NC2CCCCC2)cc1` [GLYBURIDE], for which, in the assay on Rattus norvegicus, the Activity is reported as 62.02%.

The record behind these values is ChEMBL document CHEMBL4350994, “Andrographolide: A natural product template for the generation of structurally and biologically diverse diterpenes” (Eur J Med Chem, 2019).
